# Measured values from patent publication US20250092058A1 (priority 2018, published 2025).
# Tests used:
# [1] = tested on: HeLa; type: cell-based, human; conditions: Table 13; MTT; HeLa cervical cancer
# [2] = tested on: CRC PDX27454 tumors; conditions: spray-dried FL118-HPβCD powder in saline with 5% PG, p.o. weekly ×4, half MTD
# Method: Colorectal cancer (CRC) patient-derived xenograft (PDX) models were used to evaluate their in vivo antitumor activity. […] Treatments were administered weekly for four weeks on days 0, 7, 14 and 21 and tumor volumes and individual body weights were monitored.
# Human xenograft tumors used. In this invention disclose, human SW620 (colorectal), HT29 (colorectal) and HT-3 (retinoblastoma) cancer cell line-established xenograft tumors were used. Human tumor cell line-derived xenograft tumors are initially established by subcutaneously injecting 2-5×10^6 cultured cancer cells in a volume of 100-150 p L medium into the flank area of severe combined immunodeficiency (SCID) mice. The derived tumors are then passed a couple of generations in mice by transplanting 30-50 mg non-necrotic tumor mass via a trocar for experiments or maintenance. […] PDX tumors were originally established on severe Combined Immunodeficiency (SCID) mice from pancreatic and colorectal cancer patient tumor tissues obtained from metastatic sites of the disease in the clinic.
# Specifically, PDX tumors were originally established on severe Combined Immunodeficiency (SCID) mice from pancreatic and colorectal cancer patient tumor tissues obtained from metastatic sites of the disease in the clinic. […] The vehicle is the same think aqueous suspension without drug. Experimental SCID mice were subcutaneously implanted with 30-40 mg individual PDX tumors (isolated from maintenance mice) at the flank area for PDX27454 of SCID mice. Treatment with vehicle or a drug of 7Q-series (2) was initiated 7-14 days after the transplanted tumors reached 100-200 mm^3 (designated day 0). The animal model of PDX tumors was orally treated weekly for 4 times (one cycle/course, as shown with black arrows) or only one time drug administration.
# [3] = Stability of FL118 formulated suspension; conditions: no observable change in antitumor efficacy vs freshly prepared
# [4] = tested on: HepG2; type: cell-based, human; conditions: Table 13; MTT; HepG2 liver cancer
# [5] = tested on: PDX10978; assay: Pancreatic cancer PDX10978 in SCID mice; type: in vivo
# Method: Human pancreatic cancer patient-derived xenograft (PDX) tumor mouse model and treatment. Experiments followed the IACUC-approved mouse protocol. Briefly, human PDAC PDX tumors maintained on SCID mice were isolated, and a piece of non-necrotic tumor tissues (30-40 mg) were subcutaneously transplanted into the flank area of female SCID mice. […] In this study, we used the timesaving intraperitoneal (ip) route for drug administration. […] The formulation process was described in detail in our previous patent (PCT/US2011/058558). […] Tumor length (L) and width (W) were measured using digital vernier calipers 1-3 times per week until the end of experimental studies. The tumor volume (v) was calculated using the formula: v=0.5 (L×W^2). Then the tumor size was divided by the day 0 tumor size as percentage tumor size versus day 0. The mean tumor volume ± standard deviation (SD) at each time point was derived from 5 mice in each group. The tumor curves were made using Sigma Plot software.
# It has been recently documented that pancreatic cancer PDXs retain active paracrine/Hedgehog signaling, and desmoplasia is active in PDX tumor mouse models.
# [6] = tested on: PANC1, Mia2, BxPC-3; assay: MTT viability of pancreatic cancer cells; type: cell-based, human; conditions: 72 h, nM level
# Method: MTT assays. […] Each experiment was performed at least in triplicate.
# Next, we determined whether FL118-mediated inhibition of antiapoptotic proteins and induction of pro-apoptotic proteins shown in FIG. 1 would be accompanied by induction of apoptosis and cell killing.
# [7] = tested on: A2780CP70-GFPcODC cells; assay: GFPcODC drug-resistant cell tracking, A2780CP; type: cell-based, human; conditions: 10 nM and 100 nM
# Source text: Generation of A2780-GFPcODC, A2780CP-GFPcODC and PANC1GFPcODC cells and fluorescence microscopy to detect stem-like and drug resistant green cells. The retroviral expression vector pQCXIN-ZsGreen-cODC (ornithine decarboxylase), containing a green fluorescence marker, was kindly provided by Dr. Frank Pajonk (Vlashi E, et al., In vivo imaging, tracking, and targeting of cancer stem cells. J Natl Cancer Inst. 2009; 101: 350-9). The retroviral particles collected from packaging cells that transfected with the above vector were infected into A2780, A2780CP and PANC1 cells, respectively. The transfected cell pool was used for experiments. The transfected cells were treated with and without cisplatin or FL118 alone or in combination for defined times. Cell images were acquired digitally using the Olympus IX73 Inverted Score s (Olympus). Percentages of living cells were obtained from the average of the total cells counted from 10 microscopic fields.
# To test this, we used a novel approach developed in Dr. Pajonk's lab for the live tracking of drug resistant cells (Vlashi E, et al., In vivo imaging, tracking, and targeting of cancer stem cells. J Natl Cancer Inst. 2009; 101: 350-9). This approach takes advantage of reduced 26S proteasome activity of drug resistant cells. […]
# [8] = FL118 MTD in SCID mice; type: in vivo
# [9] = BALB/cj mice, FL118 MTD 10 mg/kg oral qw×4
# [10] = BALB/cj mouse serum, FL118 MTD 10 mg/kg oral qw×4
smiles,measurement,setting,value
"CC[C@@]1(O)C(=O)OCc2c1cc1n(c2=O)Cc2cc3cc4c(cc3nc2-1)OCO4 [FL118, 10,11-methylenedioxy-camptothecin]",IC50,[1],34.7 ± 9.9 nM
same,antitumor activity,[2],great antitumor activity
same,toxicity (mouse body weight changes),[2],no toxicity at all
same,stability of formulated suspension for oral administration,[3],more than 12 months
same,IC50,[4],68.5 ± 6.7 nM
same,antitumor efficacy,[5]; 5 mg/kg ip qw×4,only able to delay PDX10978 tumor growth
same,"antitumor efficacy, single agent",[5]; FL118 0.75 mg/kg or gemcitabine 60 mg/kg ip qw×4,only delayed tumor growth
same,pancreatic cancer cell viability,[6],effectively inhibited pancreatic cancer cell viability
same,tolerability,10 mg/kg oral qw×4,well tolerated
same,BASO,[9],0 K/μL
same,EOS,[9],0.01-0.1 K/μL
same,HCT,[9],26.1-30.9%
same,HGB,[9],8.9 to 10.8 g/dL
same,LYM,[9],0.06-0.17 K/μL
same,MCH,[9],14.8 to 15.3 pg
same,MCHC,[9],33.7 to 36 g/dL
same,MCV,[9],41.9 to 43.9 fL
same,MONO,[9],0.03-0.12 K/μL
same,MPV,[9],8.1 to 8.6 fL
same,NEUT,[9],0.03-0.5 K/μL
same,PDW,[9],13.8 to 14.4 fL
same,PLT,[9],487-1004 K/μL
same,RBC,[9],6.01-7.04 M/μL
same,RDW-SD,[9],23 to 24.8 fL
same,RET,[9],0.67-4.49 K/μL
same,WBC,[9],0.33-0.6 K/μL
same,ALB,[10],1.7 to 2.2 g/dL
same,ALP,[10],52-105 U/L
same,ALT,[10],33-58 U/L
same,BUN,[10],16 to 19 mg/dL
same,CHOL,[10],91 to 109 mg/dL
same,CREA,[10],≤0.1 mg/dL
same,Ca,[10],8.1 to 9.4 mg/dL
same,GLU,[10],87 to 185 mg/dL
same,PHOS,[10],10 to 13.3 mg/dL
same,TBIL,[10],≤0.1 to 0.3 mg/dL
same,TP,[10],3.4 to 4.1 g/dL
same,body weight loss,≥12.5 mg/kg oral qw×4,> 20%
same,decrease of GFPcODC-positive drug-resistant cell population,[7],more than 50%
same,maximum tolerated dose (MTD),"[8]; oral formulation, tumor-bearing SCID mice, qw×4",10 mg/kg
same,MTD,"[8]; oral, q1d×5 and q2d×5",~1.5 mg/kg
same,MTD,"[8]; two doses in SCID mice, estimated",12 mg/kg/dose
